Data on 25 molecules can be found in article PMC9923736, “Optimized Ebselen-Based Inhibitors of Bacterial Ureases with Nontypical Mode of Action” (Journal of Medicinal Chemistry, 2023).

As a reminder, the IC50 is the concentration at which inhibition is half-maximal. For orientation: Ki means a measure of affinity in units of concentration, obtained from inhibition or displacement. In general, IC90 refers to the point of the concentration-response curve where the effect stands at 90%.

Test [1] has as its target bacterial thioredoxin reductase, Bacillus anthracis. The following applies: cited from earlier work.
A further test has as its target histone deacetylases. On the set-up: method as in PMID 22047054. The following applies: cited from earlier work.
The next test deals with antigen 85 complex. The following applies: antigen 85 complex of Mycobacterium tuberculosis; cited from earlier work.
Test [2] relates to urease in living cells of P. mirabilis PCM 543. Put plainly: Inhibition of ureolysis in whole P. mirabilis cells in PBS buffer (nongrowth conditions). The following applies: Proteus mirabilis, read-out: IC50 (PBS buffer).
In the next test the target is glutamate dehydrogenase. The following applies: cited from earlier work.
In test [3] the target is methionine aminopeptidase 2. The following applies: cited from earlier work.
Test [4] concerns the target Sporosarcina pasteurii urease (Sporosarcina pasteurii, UniProt P41020). Put plainly: Inhibition of purified S. pasteurii urease (Ki; phenol-hypochlorite/Berthelot ammonia assay). The following applies: for mechanism of inhibition: S. pasteurii urease, Lineweaver-Burk plots / reaction progress curves. It counts as biochemical. The protocol: The values of kinetic parameters ( and KM
vmax) of the purified enzyme were determined by fitting the initial reaction velocities measured in a range of urea concentrations to the Michaelis-Menten equation by nonlinear regression. The values […]
Enzymatic reactions were carried out in 3 mM phosphate buffer pH 7.5 at 37 °C. The kinetic parameters of urease in the noninhibited reaction ( and ) were obtained by measuring the Kmvmax […]
activity was defined as the amount of enzyme required to produce 1 µM ammonia per min under […]
S2.1. Inhibition studies.
S. pasteuriipM urease in assay mixtures (200 μL total volume) containing increasing concentrations […]
The values were calculated using the appropriate equations in Ki the GraphPad Prism 5 software. The inhibition mechanism was determined using Lineweaver-Burk plots after testing at least five inhibitor concentrations in the range depending on their inhibitory strength (exemplified in Figure S26).
S2.2. Inhibition studies. […]
and 52), ammonia concentration versus time, for urea hydrolysis catalyzed by S. pasteurii urease in the absence and presence of inhibitors were performed in standard assay mixtures at a single urea concentration (final concentration 25 mM) and at different inhibitor concentrations according to their inhibitory strength. Enzymatic hydrolysis of urea was initiated by adding […] of urease solution […]
min in samples taken from reaction mixtures at set time intervals. The reaction mixtures were stirred throughout the measurement period. The nonlinear reaction progress curves with time-dependent inhibitors of urease (for the nonincubated reaction and under conditions: [I]0 ≫ [E] 0) were described using the integrated equation: , (where is the concentration [P]=vt+(v+v)(1―e―kappt)1P […]
of the reaction product formed at time t, which is the reaction time, and are the reaction initial vivs and steady-state rates, respectively, and is the apparent first-order rate constant for the kapp interconversion between and ). […] The vivs […]
equilibrium dissociation constants of the initial and the final enzyme conformation complex EI EI ∗ […]
is the Michaelis-Menten constant, maximum rate of enzyme in a noninhibited reaction, vmax S and I are substrate and inhibitor concentration). The mechanism of inhibitor binding was determined using steady-state kinetic measurements (Figures S27 and S28). […]
pM) was pre-incubated with increasing inhibitor concentrations in separate aliquots of reaction buffer prior to the initiation of the reaction by urea incorporation at a concentration ranging from 1 to 60 mM. The incubation time was different for the assayed inhibitors, depending on when equilibrium was achieved between enzyme , inhibitor and enzyme-inhibitor complexes ( and : (E)(I)EI EI ∗ E + I ↔EI ↔ EI ∗ ) . The values were calculated using the appropriate equations implemented in Ki the GraphPad Prism 5 software. The inhibitors were dissolved in water or DMF (the solvent was […]
Urease activity was determined using the […]
run in triplicate for the compounds analyzed.

Test [5] has as its system urease in living cells of P. mirabilis PCM 543. The test can be described thus: Inhibition of ureolysis in whole P. mirabilis cells in artificial urine model. The following applies: Proteus mirabilis, read-out: IC90 (urine model).

Each structure is given as a SMILES string.

Sequence of Sporosarcina pasteurii urease (P41020 whole entry, looked up): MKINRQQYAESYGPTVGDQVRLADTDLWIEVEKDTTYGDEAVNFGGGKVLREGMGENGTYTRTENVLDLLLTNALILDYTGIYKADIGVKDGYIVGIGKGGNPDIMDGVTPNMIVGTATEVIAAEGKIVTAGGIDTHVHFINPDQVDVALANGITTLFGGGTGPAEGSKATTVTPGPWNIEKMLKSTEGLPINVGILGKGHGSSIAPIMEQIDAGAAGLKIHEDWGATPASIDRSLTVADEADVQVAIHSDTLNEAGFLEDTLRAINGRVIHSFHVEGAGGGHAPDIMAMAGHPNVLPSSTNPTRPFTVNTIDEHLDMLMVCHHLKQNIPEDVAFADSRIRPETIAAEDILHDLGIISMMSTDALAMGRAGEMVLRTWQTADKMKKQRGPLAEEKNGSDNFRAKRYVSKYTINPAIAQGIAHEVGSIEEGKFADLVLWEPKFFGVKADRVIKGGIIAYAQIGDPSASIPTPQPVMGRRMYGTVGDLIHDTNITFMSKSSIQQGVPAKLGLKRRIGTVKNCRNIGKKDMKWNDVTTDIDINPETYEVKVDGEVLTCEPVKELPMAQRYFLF

On to `O=c1c2ccccc2[se]n1-c1ccccc1` [compound 1, 2-phenyl-1,2-benzisoselenazol-3(2H)-one], for which the half-maximal inhibitory concentration (IC50) in test [1] is 1000 nM; in test [2] it was 29.2 ± 3.1 nM; on glutamate dehydrogenase, 360 nM; in test [3], 2430 nM. Besides, the results for the Ki on histone deacetylases and at antigen 85 complex were 80 to 4420 nM and 63 nM, respectively.

With `Cc1ccccc1-n1[se]c2ccccc2c1=O` [compound 30, 2-(2-Methylphenyl)-1,2-benzisoselenazol-3(2H)-one], in test [4], the Ki was determined as 3.56 ± 0.32 nM. Besides, in test [2], the half-inhibitory concentration (IC50) came to 25 ± 2 nM. Besides, in test [5], the IC90 worked out at 121 ± 13 nM.

The molecule `O=c1c2ccccc2[se]n1-c1ccccc1F` [compound 31, 2-(2-Fluorophenyl)-1,2-benzisoselenazol-3(2H)-one] had a Ki in test [4] of 0.974 ± 0.089 nM. Moreover, the IC50 in test [2] was determined as 7.48 ± 0.67 nM. Also, in test [5], the concentration for an effect of 90% (IC90) was found to be 34.7 ± 2.7 nM.

Take `O=c1c2ccccc2[se]n1-c1ccccc1Cl` [compound 32, 2-(2-Chlorophenyl)-1,2-benzisoselenazol-3(2H)-one]: the affinity in test [4] corresponds to a Ki of 13.7 ± 0.96 nM. For the same molecule, the concentration for half-maximal inhibition (IC50) in test [2] was 13.6 ± 1.5 nM. The concentration for an effect of 90% (IC90) in test [5] was found to be 87.7 ± 8.3 nM.

With `O=c1c2ccccc2[se]n1-c1ccccc1Br` [compound 33, 2-(2-Bromophenyl)-1,2-benzisoselenazol-3(2H)-one], the inhibition constant (Ki) in test [4] worked out at 6.79 ± 0.53 nM. The concentration for half-maximal inhibition (IC50) in test [2] was 26.9 ± 2.8 nM. Moreover, the concentration for an effect of 90% (IC90) in test [5] is 543 ± 26 nM.

On to `O=c1c2ccccc2[se]n1-c1ccccc1O` [compound 34, 2-(2-Hydroxyphenyl)-1,2-benzisoselenazol-3(2H)-one], for which the Ki in test [4] amounted to 1.42 ± 0.14 nM. The IC50 in test [2] amounted to 16.8 ± 1.4 nM. Also, the IC90 in test [5] is 148 ± 6 nM.

In turn, `COc1ccccc1-n1[se]c2ccccc2c1=O` [compound 35, 2-(2-Methoxyphenyl)-1,2-benzisoselenazol-3(2H)-one] gave an inhibitory constant (Ki) in test [4] of 5.36 ± 0.43 nM. Besides, the IC50 in test [2] came to 4.19 ± 0.45 nM. Besides, in test [5], the 90% effect concentration (IC90) turned out to be 18.8 ± 2.4 nM.

In the case of `O=c1c2ccccc2[se]n1-c1cccc(F)c1` [compound 36, 2-(3-Fluorophenyl)-1,2-benzisoselenazol-3(2H)-one], the inhibition constant Ki in test [4] came out at 1.89 ± 0.16 nM. Besides, the IC50 in test [2] was determined as 8.86 ± 0.81 nM. Further, the IC90 in test [5] was 223 ± 17 nM.

Take `COc1cccc(-n2[se]c3ccccc3c2=O)c1` [compound 37, 2-(3-Methoxyphenyl)-1,2-benzisoselenazol-3(2H)-one]: in test [4], the Ki was determined as 1.07 ± 0.08 nM and the mechanism of inhibition entry is listed as “Slow binding inhibition”. For the same molecule, the half-maximal inhibitory concentration (IC50) in test [2] worked out at 11.5 ± 1.3 nM. The IC90 in test [5] worked out at 53.8 ± 3.7 nM.

As to `Cc1ccc(-n2[se]c3ccccc3c2=O)cc1` [compound 38, 2-(4-Methylphenyl)-1,2-benzisoselenazol-3(2H)-one], in test [4], the affinity corresponds to a Ki of 4.04 ± 0.32 nM.

In test [4], `O=c1c2ccccc2[se]n1-c1ccc(F)cc1` [compound 39, 2-(4-Fluorophenyl)-1,2-benzisoselenazol-3(2H)-one] gave a Ki of 24.1 ± 2.6 nM. In addition, the IC50 in test [2] turned out to be 12.1 ± 1.4 nM. Also, the 90% effect concentration (IC90) in test [5] is 145 ± 17 nM.

In the case of `O=c1c2ccccc2[se]n1-c1ccc(C(F)(F)F)cc1` [compound 40, 2-(4-Trifluoromethylphenyl)-1,2-benzisoselenazol-3(2H)-one], the Ki in test [4] is 0.0363 ± 0.0039 nM. The IC50 in test [2] is 16 ± 1.3 nM. The IC90 in test [5] worked out at 100 ± 14 nM.

Regarding `COc1ccc(-n2[se]c3ccccc3c2=O)cc1` [compound 41, 2-(4-Methoxyphenyl)-1,2-benzisoselenazol-3(2H)-one], the affinity in test [4], expressed as Ki, was 44 ± 4.2 nM. In addition, in test [2], the IC50 stood at 15.9 ± 1.1 nM. Also, in test [5], the concentration for an effect of 90% (IC90) is 180 ± 10 nM.

With `CCCCOc1ccc(-n2[se]c3ccccc3c2=O)cc1` [compound 42, 2-(4-n-Butoxyphenyl)-1,2-benzisoselenazol-3(2H)-one], in test [4], the affinity corresponds to a Ki of 1.78 ± 0.18 nM and the mechanism of inhibition entry is “Slow binding inhibition”. Also, the IC50 in test [2] amounted to 32.2 ± 3.8 nM. The concentration for an effect of 90% (IC90) in test [5] stood at 224 ± 15 nM.

On to `COc1ccc(-n2[se]c3ccccc3c2=O)c(C)c1` [compound 43, 2-(4-Methoxy-2-methylphenyl)-1,2-benzisoselenazol-3(2H)-one], for which, in test [4], the Ki was 7.3 ± 0.56 nM and the mechanism of inhibition result is “Slow binding inhibition”. Further, in test [2], the 50% inhibitory concentration (IC50) turned out to be 25.1 ± 2 nM. Further, the 90% effect concentration (IC90) in test [5] was 148 ± 10 nM.

Regarding `O=c1c2ccccc2[se]n1-c1ccc(F)cc1F` [compound 44, 2-(2,4-Difluorophenyl)-1,2-benzisoselenazol-3(2H)-one], in test [4], affinity was put at a Ki of 0.0167 ± 0.0017 nM. Besides, in test [2], the half-maximal inhibitory concentration (IC50) was 17 ± 1.8 nM. Besides, the concentration for an effect of 90% (IC90) in test [5] worked out at 130 ± 16 nM.

As for `Cc1ccc(-n2[se]c3ccccc3c2=O)c(Cl)c1` [compound 46, 2-(2-Chloro-4-methylphenyl)-1,2-benzisoselenazol-3(2H)-one], the affinity in test [4], expressed as Ki, was 3.26 ± 0.23 nM. In addition, the IC50 in test [2] was found to be 20 ± 1.7 nM. For the same molecule, the IC90 in test [5] was 176 ± 12 nM.

Turning to `O=c1c2ccccc2[se]n1-c1ccc(F)cc1Cl` [compound 47, 2-(2-Chloro-4-fluorophenyl)-1,2-benzisoselenazol-3(2H)-one], the affinity in test [4] corresponds to a Ki of 0.0058 ± 0.0004 nM. Also, the 50% inhibitory concentration (IC50) in test [2] was 22.7 ± 2.5 nM. Further, the IC90 in test [5] stood at 126 ± 8 nM.

Turning to `Cc1ccc(Cl)cc1-n1[se]c2ccccc2c1=O` [compound 48, 2-(5-Chloro-2-methylphenyl)-1,2-benzisoselenazol-3(2H)-one], the Ki in test [4] stood at 75.2 ± 6.2 nM.

In test [4], `O=c1c2ccccc2[se]n1-c1cc(Cl)ccc1F` [compound 49, 2-(5-Chloro-2-fluorophenyl)-1,2-benzisoselenazol-3(2H)-one] yielded a Ki of 0.0135 ± 0.0014 nM. Besides, in test [2], the IC50 stood at 11.8 ± 1 nM. Moreover, the IC90 in test [5] was 151 ± 20 nM.

In test [4], `Cc1ccc(Cl)c(-n2[se]c3ccccc3c2=O)c1` [compound 50, 2-(2-Chloro-5-methylphenyl)-1,2-benzisoselenazol-3(2H)-one] registered an inhibition constant (Ki) of 1.63 ± 0.13 nM. Further, the IC50 in test [2] worked out at 54 ± 2.7 nM. Moreover, the IC90 in test [5] was 243 ± 17 nM.

For the molecule `O=c1c2ccccc2[se]n1-c1cc(Cl)ccc1Cl` [compound 51, 2-(2,5-Dichlorophenyl)-1,2-benzisoselenazol-3(2H)-one], the affinity in test [4] corresponds to a Ki of 0.00885 nM. In test [2], the concentration for half-maximal inhibition (IC50) stood at 21.2 ± 1.5 nM. Further, in test [5], the IC90 was determined as 254 ± 14 nM.

On to `COc1ccc(C)cc1-n1[se]c2ccccc2c1=O` [compound 52, 2-(2-Methoxy-5-methylphenyl)-1,2-benzisoselenazol-3(2H)-one], for which, in test [4], the Ki was found to be 7.11 ± 0.56 nM and the mechanism of inhibition entry is reported as “Slow binding inhibition”. Besides, the half-inhibitory concentration (IC50) in test [2] amounted to 11.8 ± 1.6 nM. Moreover, the IC90 in test [5] is 96.6 ± 8.1 nM.

With `COc1ccc(Cl)cc1-n1[se]c2ccccc2c1=O` [compound 53, 2-(5-Chloro-2-methoxyphenyl)-1,2-benzisoselenazol-3(2H)-one], in test [4], the Ki was 1.63 ± 0.12 nM. Moreover, the IC50 in test [2] is 21.9 ± 1.7 nM. Further, the IC90 in test [5] is 82.2 ± 11.3 nM.

Consider `Cc1cc(-n2[se]c3ccccc3c2=O)ccc1Cl` [compound 54, 2-(4-Chloro-3-methylphenyl)-1,2-benzisoselenazol-3(2H)-one], for which the affinity in test [4], expressed as Ki, was 2.45 ± 0.16 nM. Besides, the IC50 in test [2] turned out to be 23.8 ± 2 nM. The 90% effect concentration (IC90) in test [5] is 124 ± 14 nM.
